Source: PMC5116089, “Sulfheme formation during homocysteine S-oxygenation by catalase in cancers and neurodegenerative diseases” (Nature Communications, 2016)
Values belong to the compound of their own block, whether it stands above or below them.

How the values were obtained:
Bovine liver catalase [1] = target: T1, Bovine liver catalase (Bos taurus, UniProt P00432); assay: Time course of catalase inactivation by HCys (activity test); type: biochemical; details: CAT + 2 mM HCys, 1 mM DTPA, pH 7.4, with the additive named (DMPO 100 mM, dimedone 4 mM, SOD 40 U); n=2±s.d.
T1 construct: Bovine liver catalase was also purchased from Sigma-Aldrich; purchased Sigma-Aldrich; host or cells: bovine liver
T1 sequence (P00432 2-527 limits assumed): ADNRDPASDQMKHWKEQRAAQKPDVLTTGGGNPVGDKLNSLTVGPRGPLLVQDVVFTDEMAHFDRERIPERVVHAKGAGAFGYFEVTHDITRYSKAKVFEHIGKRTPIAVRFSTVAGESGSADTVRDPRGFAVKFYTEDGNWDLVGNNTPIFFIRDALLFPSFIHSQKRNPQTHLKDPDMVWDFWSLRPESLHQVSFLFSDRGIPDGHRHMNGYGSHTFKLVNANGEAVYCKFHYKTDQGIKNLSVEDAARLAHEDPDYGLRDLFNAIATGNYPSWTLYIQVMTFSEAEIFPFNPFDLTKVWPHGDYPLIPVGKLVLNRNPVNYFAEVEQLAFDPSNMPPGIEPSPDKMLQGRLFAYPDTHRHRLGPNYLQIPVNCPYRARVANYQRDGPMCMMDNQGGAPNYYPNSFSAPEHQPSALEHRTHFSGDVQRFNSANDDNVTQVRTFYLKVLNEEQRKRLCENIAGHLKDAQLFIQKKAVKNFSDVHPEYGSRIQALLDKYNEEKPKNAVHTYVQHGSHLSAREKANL
Description: CAT activity was measured on an Uvikon 941 spectrophotometer equipped with a temperature controlled water bath (±1 °C) by following the disappearance of H2O2 at 240 nm over 30–120 s at 25 °C. Catalase activity was calculated based on the rate of decomposition of hydrogen peroxide, which is proportional to the reduction of the absorbance at 240 nm. Experiments were carried out in a 3 ml quartz cuvette containing 11.7 mM H2O2 in 50 mM KPi, pH 7.4±1 mM DTPA and the reaction was initiated by adding 0.3–0.6 pmoles of CAT. The effect of biological thiols on the activity of CAT under physiological conditions was determined from a solution of CAT (30–60 nM) preincubated at 25 °C for at least 120 min as a function thiol concentration (0–40 mM for HCys and Cys, 0–100 mM for GSH) in 50 mM KPi, pH 7.4, 1 mM DTPA. Control experiments (biological thiols alone) were also performed in parallel. In each case, 10 μl of the reaction mixture (biological thiols±CAT) was added to the cuvette containing the H2O2 solution to initiate the reaction. Similarly, the effect of biological thiols on the activity of CAT under pathological conditions was determined from a solution of CAT (30–60 nM) containing a 2.124±0.386 molar excess of iron that was preincubated with various concentrations of thiols (0–1 mM) for at least 120 min at 25 °C in 50 mM KP at pH 7.4. The relative half inhibitory concentration (IC50) values were obtained by plotting the relative activity of CAT (A, in per cent) as a function of the concentration of thiol-compounds (RSH) and by fitting the data with the following four parameter logistic equation: A=Amin+(Amax−Amin)/(1+([RSH]/IC50)^n), where Amax is the maximal activity of CAT (constrained at 100%), Amin is the minimum activity achieved at saturating concentration of RSH and n is the Hillslope that characterizes the slope of the curve at its midpoint. The inactivation rate (kinact, min^−1) was extracted from the time course of the inactivation of CAT bioactivity using a fixed concentration of HCys. Accordingly, a solution of CAT (3.5–5 μM) was incubated with 2 mM L-HCys in 50 mM KPi, pH 7.4, 1 mM DTPA. Aliquots (10 μl) were taken at intervals (0–480 min), diluted 1:50 in 50 mM KPi, pH 7.4, 1 mM DTPA and assayed for CAT activity as described above. […] The effect of NaSH on the consumption of H2O2 in cell lysates was determined from a solution of cell lysates (0.5–3 mg ml^−1) incubated on ice with various concentrations of NaSH (0–200 μM). […]

Bovine liver catalase [2] = target: T1, Bovine liver catalase; assay: Comparative kinetic studies by ultraviolet-visible spectroscopy (compound II and Fe(II) sulfonium formation); type: biochemical; details: CAT + 2 mM HCys, 1 mM DTPA, pH 7.4, with the additive named (dimedone 4 mM, BCN 0.1 mM, SOD 40 U)
Description: Ultraviolet–visible spectra were recorded on a Cary 300 Scan or an Uvikon 941 spectrophotometer equipped with a temperature equilibrating water bath (±1 °C). Spectral changes over time were recorded when CAT was incubated with L-HCys (0.2 or 2 mM), L-Cys (0.2, 2 or 9 mM) or GSH (1 or 30 mM) at 25 °C in a 1 ml quartz cuvette containing a solution of CAT (2.7–5.9 μM) in 50 mM KPi, pH 7.4±1 mM DTPA. Due to half-site reactivity of biological thiols with CAT, the data were recorded versus a blank containing half the concentrations of CAT used in the experiments, that is, a solution of 1.35–2.95 μM CAT in 50 mM KPi at pH 7.4±1 mM DTPA. Reactions were initiated by addition of the thiol-containing compounds. Comparative kinetic studies were performed by incubating CAT ([…] in the experiment, 1.35–1.5 μM in the blank) with 2 mM L-HCys in 50 mM KPi, pH 7.4, 1 mM DTPA with or without […], 5,5-dimethyl-1,3-cyclohexanedione (dimedone, 4 mM), BCN (0.1 mM) or SOD, 40 U). All the experiments were performed at least in duplicate.

Bovine liver catalase [3] = target: T1, Bovine liver catalase; assay: Catalase activity (H2O2 disappearance at 240 nm) as a function of thiol concentration; type: biochemical; details: DTPA 0-10 mM, CAT 40 nM pre-incubated 120 min, 25 °C
Description: CAT activity was measured on an Uvikon 941 spectrophotometer equipped with a temperature controlled water bath (±1 °C) by following the disappearance of H2O2 at 240 nm over 30–120 s at 25 °C. Catalase activity was calculated based on the rate of decomposition of hydrogen peroxide, which is proportional to the reduction of the absorbance at 240 nm. Experiments were carried out in a 3 ml quartz cuvette containing 11.7 mM H2O2 in 50 mM KPi, pH 7.4±1 mM DTPA and the reaction was initiated by adding 0.3–0.6 pmoles of CAT. The effect of biological thiols on the activity of CAT under physiological conditions was determined from a solution of CAT (30–60 nM) preincubated at 25 °C for at least 120 min as a function thiol concentration (0–40 mM for HCys and Cys, 0–100 mM for GSH) in 50 mM KPi, pH 7.4, 1 mM DTPA. Control experiments (biological thiols alone) were also performed in parallel. In each case, 10 μl of the reaction mixture (biological thiols±CAT) was added to the cuvette containing the H2O2 solution to initiate the reaction. Similarly, the effect of biological thiols on the activity of CAT under pathological conditions was determined from a solution of CAT (30–60 nM) containing a 2.124±0.386 molar excess of iron that was preincubated with various concentrations of thiols (0–1 mM) for at least 120 min at 25 °C in 50 mM KP at pH 7.4. The relative half inhibitory concentration (IC50) values were obtained by plotting the relative activity of CAT (A, in per cent) as a function of the concentration of thiol-compounds (RSH) and by fitting the data with the following four parameter logistic equation: A=Amin+(Amax−Amin)/(1+([RSH]/IC50)^n), where Amax is the maximal activity of CAT (constrained at 100%), Amin is the minimum activity achieved at saturating concentration of RSH and n is the Hillslope that characterizes the slope of the curve at its midpoint. The inactivation rate (kinact, min^−1) was extracted from the time course of the inactivation of CAT bioactivity using a fixed concentration of HCys. Accordingly, a solution of CAT (3.5–5 μM) was incubated with 2 mM L-HCys in 50 mM KPi, pH 7.4, 1 mM DTPA. Aliquots (10 μl) were taken at intervals (0–480 min), diluted 1:50 in 50 mM KPi, pH 7.4, 1 mM DTPA and assayed for CAT activity as described above. Similar experiments were performed in the presence of DMPO, 5,5-dimethyl-1,3-cyclohexanedione (dimedone) or SOD at a final concentration of 100 mM, 4 mM or 40 U, respectively. kinact values were obtained by plotting the relative activity of CAT (A, in per cent) as a function of the incubation time and the data were fitted with an exponential decay function: A=A0+ΔA × e^−kinact × t, with A0 and ΔA (A0+ΔA=100%) the residual activity and the percentage of CAT inhibition when t→∞, respectively. The effect of NaSH on the consumption of H2O2 in cell lysates was determined from a solution of cell lysates (0.5–3 mg ml^−1) incubated on ice with various concentrations of NaSH (0–200 μM). The disappearance of H2O2 was then followed at 240 nm for 2–5 min at 25 °C after the addition of 20–25 μl of the reaction mixture in a 3 ml cuvette containing 11.7 mM H2O2 in 50 mM KPi, pH 7.4. The relative half inhibitory concentration (IC50) values for NaSH were obtained by plotting the relative rate of disappearance of H2O2 (ΔA240 nm/min) as a function of the concentration of NaSH and by fitting the data with an hyperbolic decay equation. All the experiments were performed at least in triplicate.

[4] = test system: M17 human neuroblastoma cells; assay: Relative specific activity of catalase (SpCAT) in cells treated with rotenone; type: cell-based; details: BE2-M17 cells, 100 nM rotenone, 48 h
Description: Hek293T cells (n=2) were plated and transfected the following day with pcDNA (empty vector), Htt-N171-82Q (Htt) or Alpha-synuclein-A53T (α-Syn) plasmids (20 μg) with the calcium phosphate method. BE2-M17 cells (n=2) were plated and treated the following day with 100 nM rotenone dissolved in DMSO or DMSO alone. Hek293T and BE2-M17 cells were collected 48 h after transfection or treatment with DMSO±rotenone, respectively.
The relative specific activity (activity and quantity) of catalase in the cell lysates was determined using the kit ab118184 from Abcam (Cambridge, MA). The measurements were performed in duplicate as per the manufacturer's protocol. Briefly, catalase in cell lysates (0.1–0.2 mg cell lysates per assay) was immunocaptured within the wells of the microplate. An assay buffer, which contains H2O2 that reacts with a substrate to generate a luminescent product, was added to each well. […] Then, the quantity of catalase was measured by adding to each well an anti-catalase primary detector antibody. […] A blue colour (absorbance at 600 nm) developed in proportion to the amount of catalase bound. Luminescence and absorbance measurements were performed on an EnSpire Multilabel Reader 2300 (PerkinElmer). […] The protocol above was then followed to determine activity measurement and catalase quantification.

[5] = test system: crypt and surface epithelial cells; assay: Relative specific activity of catalase (SpCAT) in rodent model of DSS-induced colitis; type: in vivo, mice; details: DSS 3.5% in drinking water for 5 days, cells isolated day 7
Description: Seven-week-old male C57BL/6J mice (n=6; Envigo, Gannat, France) were acclimated for 1 week with free access to standard mouse chow and tap water. Each mouse was maintained in a cage under controlled conditions of temperature (23 °C), humidity (55±10%) and light (12:12 h light–dark cycle). Colitis was induced by the addition of DSS (3.5% (wt/vol), 36,000–50,000 MW, MP Biomedicals Illkirch-Graffenstaden, France) to the drinking water for 5 days (n=3). Healthy control animals (n=3) received fresh tap water, only. Two days after DSS arrest (day 7), mice were killed. […]
The relative specific activity (activity and quantity) of catalase in the cell lysates was determined using the kit ab118184 from Abcam (Cambridge, MA). […] Then, the quantity of catalase was measured by adding to each well an anti-catalase primary detector antibody. […] A blue colour (absorbance at 600 nm) developed in proportion to the amount of catalase bound. Luminescence and absorbance measurements were performed on an EnSpire Multilabel Reader 2300 (PerkinElmer). […] The protocol above was then followed to determine activity measurement and catalase quantification.

kinact (Bovine liver catalase [1]): 0.00015 s⁻¹ | Ultraviolet–visible spectroscopy kobs(6) (CAT–Fe(IV)=O formation) (Bovine liver catalase [2]): 0.010 ± 0.002 min⁻¹
Compound: CC1(C)CCC=[N+]1[O-] [DMPO, 5,5-Dimethyl-1-Pyrroline-N-Oxide]

effect on the activity of CAT (Bovine liver catalase [3]): does not interfere
Compound: O=C(O)CN(CCN(CC(=O)O)CC(=O)O)CCN(CC(=O)O)CC(=O)O [DTPA, diethylene triamine pentaacetic acid]

kinact (Bovine liver catalase [1]): 0.0003 s⁻¹ | Ultraviolet–visible spectroscopy kobs(6) (CAT–Fe(IV)=O formation) (Bovine liver catalase [2]): ^†0.019±0.003 min^−1
Compound: CC1(C)CC(=O)CC(=O)C1 [Dimedone, 5,5-dimethyl-1,3-cyclohexanedione]

Compound: C=C(C)[C@H]1Cc2c(ccc3c2O[C@@H]2COc4cc(OC)c(OC)cc4[C@@H]2C3=O)O1 [rotenone]
SpCAT versus control [4]: inhibited

Compound: Dextran Sulfate Sodium [DSS]
SpCAT versus untreated mice [5]: not modified

Ultraviolet–visible spectroscopy kobs(6) (CAT–Fe(IV)=O formation) (Bovine liver catalase [2]): 0.018 ± 0.002 min⁻¹
Compound: bicyclo[6.1.0]nonyne [BCN]

Activity test kinact (Bovine liver catalase [1]): 0.018 ± 0.001 min⁻¹
Compound: superoxide dismutase [SOD]
Ultraviolet–visible spectroscopy kobs(6) (CAT–Fe(IV)=O formation) (Bovine liver catalase [2]): 0.020 ± 0.002 min⁻¹
